Laboratory results reported in patent EP4567044A1, “HIGH-STABILITY RECOMBINANT COLLAGEN, AND CONSTRUCTION METHOD THEREFOR AND USE THEREOF” (Jiangsu Trautec Medical Technology Co., Ltd., priority 2022, dated 2024).

System: mammalian L-929 cells
Type: cell-based
Experimental: CCIC Huatongwei International Inspection (Suzhou) Co., Ltd. was entrusted to test the potential cytotoxic effect of a recombinant collagen M4 using mammalian L-929 cells cultured in vitro in accordance with method requirements of GB/T16886.5-2017. A test sample and a control sample were placed in a MEM medium including a 10% fetal bovine serum, and extracted in a 37°C incubator for 24 h. After the end of extraction, a cell medium is removed from ta 96-well plate (10^4 cells/well) cultured for 24 h, replaced with the corresponding extraction liquid, and cultured in a cell culture incubator (37°C, 5% CO2, humidity >90% ) for 24 h. After the end of culture, the morphology and lysis of a cell was observed under a microscope. The cytotoxicity value of a test sample was measured using a MTT method. […] After incubation for 24 h, the cell morphology of the extraction liquid with a 100% concentration of the test sample was basically intact, and a cell viability value was 83.6%. The recombinant collagen M4 had no potential cytotoxic effect under the cytotoxicity test conditions of a MTT method.

## CCN(CC)C(=S)[S-].CCN(CC)C(=S)[S-].[Zn+2] [ZDEC]
  cytotoxic effect: severe cytotoxic reaction
